Here are results for 6 compounds from patent publication US5446186A, “Structure and synthesis of nitrophenyl-EGTA, a caged calcium, intermediates thereof and a method of producing a high photochemical yield of liberated calcium” (priority 1993, dated 1995).

pKd: −log10 of the molar value. Entries after “also recorded” stand apart in the source; their conditions may differ. Read-outs that look alike come from different tables or passages of the source. Some results are limits rather than exact numbers.

Series [1] has as its system chemically skinned psoas fibers from rabbit skeletal muscle. The experiment in a line: Ca-induced contraction of chemically skinned skeletal muscle fibers after laser flash photolysis. The format is cell-based. Conditions: for time to achieve half-maximal tension: 15° C., 347 nm ruby laser flash, NP-EGTA:Ca^2+ 1.9 mM at 1 mM free Mg^2+, or DM-nitrophen:Ca^2+ 1.4 mM at 40 μM free Mg^2+; for tension transients, NP-EGTA compared with DM-nitrophen: photoreleased Ca^2+; for maximal contraction / full tension after laser flash: single 347 nm ruby laser flash, free Mg^2+ 1 mM (NP-EGTA), 40 μM (DM-nitrophen); for Ca^2+ release as rate-limiting step for contraction: skinned skeletal muscle fiber. From the text:
The arrow indicates the time of a pulse from a frequency-doubled ruby laser (347 nm). For DM-nitrophen, before photolysis, the muscle-bathing solution contained (mM): Tes (100), HDTA (27.91), ATPNa2 (3.0), creatine phosphate (20), glutathione (10), DM-nitrophen (2.0), MgCl2 (1.19), CaCl2 (1.60). In the NP-EGTA solution there was (mM): Tes (100), HDTA (25.35), ATPNa2 (5.50), creatine phosphate (20), glutathione (10), NP-EGTA (2.1), MgCl2 (7.0), CaCl2 (1.9). The pH of both solutions was 7.0; the ionic strength was 0.2M. Tension development was measured as in Ref. 24.
Photolysis of nitrophenyl-EGTA:Ca^2+ and DM-nitrophen:Ca^2+ complexes were used to release Ca^2+ rapidly in chemically skinned psoas fibers from rabbit skeletal muscle. […] The time to achieve half-maximal tension using NP-EGTA was 17.9 ms and 18.1 ms with DM-nitrophen at 15° C. (see FIG. 4). […] It is interesting that there are no major effects, on the rate of the development of tension nor on the maximal contraction, due to a change in [Mg]free from 40 μM to 1 mM in these experiments.

The conditions of series [2]: pH 7.2; before photolysis; read-out: Kd for Ca^2+ (comparison chelators); cited from earlier work.
For series [3] the following is noted: DM-nitrophen:Ca^2+ complex; cited from earlier work.
Series [4] is described as follows: Ca^2+ affinity by titration of chelator with Ca^2+, fluo-3 emission, Scatchard analysis. The class given is binding. To be noted: 40 mM hepes, 100 mM KCl, pH 7.2, 20° C.; before photolysis. From the text: The affinity of NP-EGTA for Ca^2+ was obtained by titration of the chelator with incremental additions of Ca^2+. […] For any chelator:Ca^a+ complex to function effectively as a caged Ca, the pre-photolysis affinity should be high for two reasons. First, it is crucial that the resting or pre-photolysis [Ca^2+ ] is very low, i.e. that it is non-activating or sub-threshold for the biological system being investigated. The Kd^Ca and the total amounts of Ca^2+ and chelator determine [Ca^2+ ]free. Secondly, the percentage of chelator loaded with Ca^2+ before photolysis is important as this is a factor which determines how much Ca^2+ is liberated upon photolysis, as Ca^2+ can only be photoreleased if it is complexed. Also, if the chelator is frilly loaded, then the photoreleased Ca^2+ will not be rebound by unphotolysed, unloaded chelator, i.e. step increases rather than pulses of Ca^2+ will be produced (see ref. 19, 20).

Series [5] is described as follows: Mg^2+ affinity by titration of Mg^2+-indicator mag-fura-red without and with NP-EGTA. The format is binding. Conditions: 40 mM hepes, 100 mM KCl, pH 7.2, 25° C.; absorbance at 480 nm. The method, then: The Mg^2+ affinity of NP-EGTA was determined by titration of the Mg^2+ -indicator, mag-fura-red (20 μM) without and with NP-EGTA (10 mM) in buffer (40 mM hepes, 100 mM KCl, pH=7.2) at 25° C.

Series [6] can be described thus: Selectivity for Ca^2+ versus Mg^2+: fluo-3 signal on addition of 1 mM Mg^2+ and on irradiation. The class given is binding.
A short description of series [7]: Quantum yield of photolysis by HPLC, comparison to caged-Pi. The class given is physicochemical. The method, then:
The filtered output of 1000-W high pressure Hg arc lamp was used to photolyze solutions of NP-EGTA (1.77 mM) or caged-Pi (3.12 mM) in buffer (40 mM hepes, 100 mM KCl, pH 7.2) with absorbances of 0.0105 in a cuvette with a pathlength of […]. Each solution also contained inosine (100 mM) as the internal standard.
On the left, t=0 s, on the fight, t=15 s.
On the left, t=0 s, on the fight, t=15 s. HPLC was performed using a Novapak C18 reverse-phase HPLC column and two Waters 501 pumps fitted with a Waters 680 automated control module delivering 2 ml/min. Pump A delivered […] and pump B 80% acetonitrile/0.052% TFA. The gradient was for 0-5 min 100% A, from 5-20 min a linear change to 80% A, and from 20-40 min 80% A. The eluent was monitored by a Waters 990 photodiode array detector and chromatograms are shown at 260 nm.
The quantum yield of NP-EGTA photolysis was determined by comparison to that of caged-Pi which has previously been determined to have a quantum yield of photolysis of 0.54 (17). The time-course of disappearance of the caged compounds was followed by HPLC analysis of the reaction mixture (FIG. 2). The amount of NP-EGTA or caged-Pi remaining in the reaction mixture was normalized for each HPLC analysis by comparison to a photochemically inert internal standard, inosine (100 mM). […] Under the same conditions (i.e. flux density), 10.3% of NP-EGTA was photolyzed when saturating Ca^a+ (3.0 mM) was present (FIG. 2b). Thus, the quantum yield of photolysis of the NP-EGTA:Ca^2+ complex is 0.23.

The nature of series [8]: Absorption and fluorescence spectral properties. The class given is physicochemical. The method, then: FIG. 1 is an absorption spectra of nitrophenyl-EGTA. The absorption spectrum of a solution of NP-EGTA ([…]) in buffer (40 mM hepes, 100 mM KCl, pH 7.2) is shown (spectrum a). The spectrum is altered (spectrum b) on addition of saturating Ca^2+ (0.20 mM). Photolysis of this sample for 300 s with the filtered output of a 1-kW Hg are lamp yielded photoproducts with spectrum (c).
The absorption spectra of NP-EGTA without and with saturating Ca^2+ are shown in FIG. 1(a) and (b) respectively. The extinction coefficients at 260 and 347 nm are 5.52×10^3 M^-1 cm^-1 and 974 M^-1 cm^-1 respectively in Ca^2+ -free buffer (40 mM hepes, 100 mM KCl, pH 7.2). Saturating Ca^2+ produces a 10% decrease in the absorption at 260 nm. The absorption spectrum changes to that shown in FIG. 1(c) upon complete photolysis in the presence of Ca^2+. […] In fact, fluo-3 saturated with Ca^2+ is about 2.1×10s-fold more fluorescent at 530 nm than NP-EGTA is at 400 nm.

Setting [9] is: Ca^2+-free buffer, 40 mM hepes, 100 mM KCl, pH 7.2.

What is called pKd is the negative decadic logarithm of the Kd, by convention in mol/L. On to `COc1cc(C(CN(CC(=O)O)CC(=O)O)N(CC(=O)O)CC(=O)O)c([N+](=O)[O-])cc1OC` (centres unmarked) [DM-nitrophen, reference compound], for which, in [1], the “time to achieve half-maximal tension” value was found to be 18.1 ms; the “tension transients, NP-EGTA compared with DM-nitrophen” value is on record as “identical, rapid tension transients”; the “maximal contraction / full tension after laser flash” value (“maximal contraction / full tension” below) is “Rapid development of maximal tension”; the “Ca^2+ release as rate-limiting step for contraction” value is “not rate-limiting”. Moreover, the negative logarithm of the Kd (pKd) in series [2] was 8.30. Further, the “Ca^2+ release t1/2” value in [3] is no more than 180 microseconds.

Take `O=C(O)CN(CCOCCOCCN(CC(=O)O)CC(=O)O)CC(=O)O` [EGTA, ethylenebis(oxyethylenenitrilo)tetraacetic acid]: the pKd in series [2] is 6.82.

As for `O=C(O)CN(CCOCCOCC(c1ccccc1[N+](=O)[O-])N(CC(=O)O)CC(=O)O)CC(=O)O` (centres unmarked) [NP-EGTA], in [4], the negative logarithm of the Kd (pKd) was 7.10. Besides, in series [5], the pKd is 2.06 and the “Kd for Mg^2+” value is reported as “in the mM range”. Also, in series [6] (0.655 mM NP-EGTA with 0.55 mM Ca^2+), the “effect of 1 mM Mg^2+ on fluo-3 signal” value is “no effect on the fluo-3 signal; also recorded: no increase in the fluo-3 signal”. In series [6] (frequency-doubled ruby laser, 347 nm), the “Ca^2+ liberation on irradiation in presence of Mg^2+ (fluo-3 signal)” value is “liberates Ca^2+ from the NP-EGTA:Ca^2+ complex”. For the same compound, the “quantum yield of photolysis, in the absence of Ca^2+” value in series [7] (Ca^2+-free, pH 7.2) was determined as 0.20. Besides, the “percent photolyzed with Ca^2+” value in series [7] (after 15 s, saturating Ca^2+ (3.0 mM), 0.25 min, 1770 µM) is 10.3%. For the same compound, the “percent photolyzed without Ca^2+” value in series [7] (same flux density, Ca^2+-free, 1770 µM) came out at 8.91%. Further, the “quantum yield of photolysis, in the presence of Ca^2+” value in series [7] (saturating Ca^2+ (3.0 mM), pH 7.2) amounted to 0.23. In addition, the “photolysis efficiency relative to DM-nitrophen” value in series [7] (versus DM-nitrophen (ref. 4)) is “the same as that of DM-nitrophen”. In addition, the “photolysis efficiency relative to nitr-5 or nitr-7” value in [7] (versus nitr-5 or nitr-7 (ref. 2)) is roughly 6 times. Further, the fluorescence emission entry in series [8] was “virtually non-fluorescent”. Moreover, in series [8] (setting [9]), the “extinction coefficient at 260 nm” value amounted to 5520 M⁻¹ cm⁻¹ and the “extinction coefficient at 347 nm” value turned out to be 974 M⁻¹ cm⁻¹. The “decrease in absorption at 260 nm on saturating Ca^2+” value in series [8] (saturating Ca^2+) was 10%. Also, in series [1], the “time to achieve half-maximal tension” value turned out to be 17.9 ms; the “tension transients, NP-EGTA compared with DM-nitrophen” value is “identical, rapid tension transients”; the “maximal contraction / full tension” value is given as “releases sufficient Ca^2+ to generate full tension in the muscle fiber”; the “Ca^2+ release as rate-limiting step for contraction” value is listed as “also not rate-limiting”. In [1] (listed as nitrophenyl-EGTA), the “time to achieve half-maximal tension” value was 18 ms and the “maximal contraction / full tension” value is listed as “maximal contraction after a single flash”.

`CC(OP(=O)(O)O)c1ccccc1[N+](=O)[O-]` (centres unmarked) [caged-Pi, 1-(o-nitrophenyl)-ethyl phosphate, reference compound]: the percent photolyzed in series [7] (after 15 s, caged-Pi 3.12 mM, 0.25 min) is reported as 15.1%.

For `Cc1ccc(N(CC(=O)O)CC(=O)O)c(OCCOc2cc(C(O)c3cc4c(cc3[N+](=O)[O-])OCO4)ccc2N(CC(=O)O)CC(=O)O)c1` (centres unmarked) [nitr-5], where the note is “1.0 mM Ca^2+ present”, the “Ca^2+ released on 50% photolysis” value is 0.80 mM and the “prephotolysis free [Ca^2+]” value came out at 0.145 mM.

`Cc1ccc(N(CC(=O)O)CC(=O)O)c(O[C@@H]2CCC[C@@H]2Oc2cc(C(O)c3cc4c(cc3[N+](=O)[O-])OCO4)ccc2N(CC(=O)O)CC(=O)O)c1` (some centres unmarked) [nitr-7]: the “Ca^2+ released on 50% photolysis” value ([chelator]:[Ca^2+] 2 mM:1.50 mM) is 3 mM.
